Laboratory results as given in publication PMC2248166, “Quantitative peptide binding motifs for 19 human and mouse MHC class I molecules derived using positional scanning combinatorial peptide libraries” (Immunome Research, 2008).

Assays:
Format in all cases: binding
HLA A*3201 = HLA A*3201 (Homo sapiens, UniProt P04439, A270S/D101S/D185E/E176V/E277Q/F133L/G103R/G107R/G231S/H175R/I121M/I218V/I322F/K168Q/L105A/L300P/L318F/M331R/P208A/P217A/Q94H/R106L/R138Q/S129P/T104I/T323A/T345S/V100E/V321M/V358M); test: biochemical
HLA B*5802 = HLA B*5802 (Homo sapiens, UniProt P01889, A329T/C349S/D201E/D98Y/E176V/E187L/E204Q/E69T/G107R/I218V/I90N/K202T/L105A/N104I/N87E/Q89R/Q94S/R106L/R155S/R180L/R86G/S101N/S121W/S35A/S48A/V127L/V306I/V36M/Y140S/Y91M)
HLA B*0801 = HLA B*0801 (Homo sapiens, UniProt P01889, A93T/A95T/D138N/E176V/E187T/K202T/Q94N/R180D/S35A/V36M/Y33D/Y91F); test: biochemical
HLA A*3001 = HLA A*3001 (Homo sapiens, UniProt P04439, D140H/D185E/E176W/F33S/G80R/H175R/K168Q/R138E/R41S); test: biochemical
HLA B*5401 = HLA B*5401 (Homo sapiens, UniProt P01889, A329T/C349S/D138N/D201E/E176V/E187T/E204Q/E69G/I76V/K202T/L119W/R155S/R180L/S121T/S35A/S48A/V127L/V306I/V36M/Y140L)
HLA B*3501 = HLA B*3501 (Homo sapiens, UniProt P01889, A329T/A93T/A95T/C349S/D201E/D98Y/E176V/E187L/E204Q/E69T/I218V/K202T/L119I/Q94N/R155S/R180L/S121R/S35A/S48A/T118I/V127L/V306I/V36M/Y140S/Y91F)
HLA B*5301 = HLA B*5301 (Homo sapiens, UniProt P01889, A329T/A93T/A95T/C349S/D201E/D98Y/E176V/E187L/E204Q/E69T/G107R/I218V/K202T/L105A/L119I/N104I/Q94N/R106L/R155S/R180L/S101N/S121R/S35A/S48A/T118I/V127L/V306I/V36M/Y140S/Y91F)
HLA B*1503 = HLA B*1503 (Homo sapiens, UniProt P01889, A329T/A93T/A95T/C349S/D201E/D98Y/E187L/E204Q/K202T/N87E/Q94N/R155S/R180L/S121R/S35A/V306I/V36M/Y140S/Y91S); test: biochemical
HLA B*5101 = HLA B*5101 (Homo sapiens, UniProt P01889, A329T/A93T/A95T/C349S/D138N/D201E/D98Y/E187L/E204Q/E69T/G107R/I218V/K202T/L105A/L119W/N104I/Q94N/R106L/R155S/R180L/S101N/S121T/S35A/S48A/V306I/V36M/Y195H/Y91F)
HLA B*5801 = HLA B*5801 (Homo sapiens, UniProt P01889, A329T/C349S/D201E/D98Y/E176V/E187L/E204Q/E69T/G107R/I218V/I90N/K202T/L105A/L119I/N104I/N87E/Q89R/Q94S/R106L/R155S/R180L/R86G/S101N/S121R/S35A/S48A/T118I/V127L/V306I/V36M/Y140S/Y91M)
H-2 D^b = H-2 D^b (Mus musculus, UniProt P01899)
H-2 D^d = H-2 D^d (Mus musculus, UniProt P01900)
H-2 K^k = H-2 K^k (Mus musculus, UniProt P04223)
H-2 K^d = H-2 K^d (Mus musculus, UniProt P01902)
HLA B*1501 = HLA B*1501 (Homo sapiens, UniProt P01889, A329T/A93T/A95T/C349S/D201E/D98Y/E187L/E204Q/E69M/E70A/K202T/N87E/Q94N/R155S/R180W/S121R/S35A/S48A/V306I/V36M/Y140S/Y91S); test: biochemical
HLA A*6802 = HLA A*6802 (Homo sapiens, UniProt P04439, A269V/D140Y/D185E/E176V/E277Q/E87N/F33Y/G231S/I121R/I166T/I218V/L180W/L300P/L318F/N151K/P208A/P217A/Q86R/R138H/R169H/S129P/T345S/V36M)

H-2 K^d, sequence (P01887 21-119): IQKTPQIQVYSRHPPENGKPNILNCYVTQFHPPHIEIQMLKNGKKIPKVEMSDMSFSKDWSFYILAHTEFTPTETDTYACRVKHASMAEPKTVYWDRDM
H-2 K^d, sequence (P01902 22-368): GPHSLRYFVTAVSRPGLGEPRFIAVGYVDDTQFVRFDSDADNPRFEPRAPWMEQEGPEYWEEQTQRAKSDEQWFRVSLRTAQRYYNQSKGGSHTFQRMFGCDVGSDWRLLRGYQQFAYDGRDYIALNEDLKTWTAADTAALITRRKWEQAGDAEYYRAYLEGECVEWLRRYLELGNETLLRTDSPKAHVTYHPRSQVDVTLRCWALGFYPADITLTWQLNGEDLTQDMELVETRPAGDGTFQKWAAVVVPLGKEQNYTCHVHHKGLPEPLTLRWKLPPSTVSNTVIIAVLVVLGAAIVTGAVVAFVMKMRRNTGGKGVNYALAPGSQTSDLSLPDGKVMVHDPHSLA
H-2 D^b, sequence (P01887 21-119): as the sequence (P01887 21-119) above
H-2 D^b, sequence (P01899 25-362): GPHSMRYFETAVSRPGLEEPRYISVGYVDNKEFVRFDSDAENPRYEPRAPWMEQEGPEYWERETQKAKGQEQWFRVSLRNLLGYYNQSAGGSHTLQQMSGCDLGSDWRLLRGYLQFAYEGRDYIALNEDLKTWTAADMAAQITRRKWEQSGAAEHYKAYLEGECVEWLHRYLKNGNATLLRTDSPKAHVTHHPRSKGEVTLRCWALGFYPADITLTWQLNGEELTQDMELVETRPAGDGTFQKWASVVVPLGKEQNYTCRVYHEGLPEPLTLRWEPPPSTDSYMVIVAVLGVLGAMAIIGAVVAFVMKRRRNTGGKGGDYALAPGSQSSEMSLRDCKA
H-2 K^k, sequence (P01887 21-119): as the sequence (P01887 21-119) above
H-2 K^k, sequence (P04223 22-369): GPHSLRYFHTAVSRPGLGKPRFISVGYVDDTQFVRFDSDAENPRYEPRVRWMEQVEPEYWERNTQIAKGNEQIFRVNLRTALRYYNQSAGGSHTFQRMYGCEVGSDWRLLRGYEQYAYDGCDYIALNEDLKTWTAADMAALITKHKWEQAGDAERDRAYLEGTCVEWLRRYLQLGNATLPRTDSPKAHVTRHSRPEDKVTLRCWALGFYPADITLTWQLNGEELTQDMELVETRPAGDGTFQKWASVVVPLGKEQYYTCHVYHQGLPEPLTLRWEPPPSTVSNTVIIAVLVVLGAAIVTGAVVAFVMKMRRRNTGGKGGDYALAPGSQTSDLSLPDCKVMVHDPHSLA
H-2 D^d, sequence (P01900 whole entry, looked up): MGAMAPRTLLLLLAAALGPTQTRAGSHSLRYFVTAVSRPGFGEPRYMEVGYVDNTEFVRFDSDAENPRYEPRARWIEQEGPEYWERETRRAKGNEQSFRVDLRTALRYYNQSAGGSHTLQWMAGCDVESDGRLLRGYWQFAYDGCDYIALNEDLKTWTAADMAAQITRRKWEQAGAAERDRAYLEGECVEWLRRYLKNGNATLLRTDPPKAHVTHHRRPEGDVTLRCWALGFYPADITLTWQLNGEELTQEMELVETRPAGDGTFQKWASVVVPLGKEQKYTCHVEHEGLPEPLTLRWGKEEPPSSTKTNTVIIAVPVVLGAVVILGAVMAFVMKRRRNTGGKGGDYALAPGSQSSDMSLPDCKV

Sequence	Normalized average relative binding affinity(ARB) (HLA A*3201)	Normalized average relative binding affinity(ARB) (HLA B*5802)	Normalized average relative binding affinity(ARB) (HLA B*0801)	Normalized average relative binding affinity(ARB) (HLA A*3001)	Normalized average relative binding affinity(ARB) (HLA B*5401)	Normalized average relative binding affinity(ARB) (HLA B*3501)	Normalized average relative binding affinity(ARB) (HLA B*5301)	Normalized average relative binding affinity(ARB) (HLA B*1503)	Normalized average relative binding affinity(ARB) (HLA B*5101)	Normalized average relative binding affinity(ARB) (HLA B*5801)	Normalized average relative binding affinity(ARB) (H-2 D^b)	Normalized average relative binding affinity(ARB) (H-2 D^d)	Normalized average relative binding affinity(ARB) (H-2 K^k)	Normalized average relative binding affinity(ARB) (H-2 K^d)	Normalized average relative binding affinity(ARB) (HLA B*1501)	Normalized average relative binding affinity(ARB) (HLA A*6802)
XXXXWXXXX [3064.0099]	0.65	1.0	0.023	0.16	0.14	0.29	0.074	0.44	0.19	0.30	0.013	0.098	1.0	0.21	0.49	0.26
XXXXXAXXX [3064.0101]	0.83	0.91	0.011	0.34	0.20	0.21	0.65	0.45	0.43	0.28	0.62	0.51	0.83	0.26	0.30	0.82
XXXXXCXXX [3064.0102]	0.19	0.38	0.039	0.13	0.10	0.15	0.13	0.096	0.26	0.17	0.66	0.43	0.40	0.26	0.40	0.44
XXXXXDXXX [3064.0103]	0.16	0.15	0.0089	0.016	0.045	0.13	0.15	0.19	0.064	0.36	0.29	0.29	0.37	0.066	0.18	0.69
XXXXXEXXX [3064.0104]	0.35	0.14	0.023	0.059	0.065	0.21	0.21	0.40	0.12	0.80	0.43	0.31	0.18	0.083	0.30	0.75
XXXXXFXXX [3064.0105]	0.90	0.36	1.0	1.0	0.30	1.0	0.86	1.0	1.0	0.51	0.70	0.79	1.0	0.39	1.0	1.0
XXXXXGXXX [3064.0106]	0.22	0.16	0.025	0.18	0.14	0.33	0.22	0.68	0.29	0.31	0.76	0.48	0.60	0.30	0.35	0.30
XXXXXHXXX [3064.0107]	0.50	0.27	0.12	0.16	1.0	0.26	0.30	0.25	0.33	0.40	0.36	0.48	0.20	0.31	0.28	0.11
